Laboratory results published in patent publication US20240306670A1, “BERBERINE ALKALOIDS IN THE PREVENTION AND/OR TREATMENT OF INTESTINAL DISEASE” (priority 2017, published 2024).
Read-outs that look alike come from different tables or passages of the source.

How the values were obtained:
[1] = Feed palatability, feed and water consumption and bird productivity study (Example 2); format: in vivo, broiler chickens; conditions: treated birds, in-water days 6-42
Text: A follow-up study to determine the feed palatability, feed and water consumption and bird productivity following incorporation of a single formulation of IRP001 hemisulfate salt (unmasked) when offered to broiler chickens in-feed or in-water. The study explores the optimal treatment regime in terms of treatment start date.
Phase 1: On receipt, two hundred and seventy (270) day-old commercial broiler chickens were allocated sequentially as they are received into sixteen (16) individual floor pens, each of 16 or 17 birds, on Day 0.
Phase 2: On receipt, the ninety (90) day-old commercial broiler chickens were allocated sequentially as they are received into four (4) individual floor pens, each of 22 or 23 birds, on Day 22.
Feed intake, water intake, weight gain and mortality were used as outcome parameters.
Individual daily feed intake and individual daily water intake data by pen and then by treatment group were calculated for Phases 1 and 2 (and for the entire trial for the birds in Group/Pen 2, 15 and 16 that continue through both Phases) using figures for total feed and water provided each day to each pen divided by the number of birds in each pen. Where errors in weighing, feeding/watering or recording (or other unexplained losses of feed and water) had occurred means were adjusted by using the mean value for the same pen on the 1-2 days either side of the apparent error. Similarly, group mean bodyweights were calculated for Phase 1 using total weight/total no. birds for Day 0 and individual weights from Days 7, 14, 21, 28, 35 and 42. Total (individual) feed consumed was calculated per treatment and feed conversion ratios per treatment calculated using the expression: total (individual) feed/total (individual) weight gain.
Individual daily feed intake and individual daily water intake were statistically compared by treatment within each phase and between Pens 2 and 15/16 over both phases using a linear model:—
and Tibco SPOTFIRE S+ 8.2 (2010). ‘Day’ was included in the model to allow for changes over time, ‘Pen’ as each treatment consisted of 2 pens while an interaction term ‘Treatment:Day’ was included to allow for treatment×time effects. Model suitability was confirmed by inspection of residual plots; in all instances the statistical model was appropriate.

[2] = test system: Clostridium Perfringens (type A strain EHE-NE36) after Eimeria oocyst challenge; conditions: NE challenged broilers; for median lesion scores: relative to nil-treatment; for small intestinal lesion scores: relative to nil treatment
[3] = cited from earlier work
[4] = test system: Eimeria species (mainly E. acervulina)
E. coli causing scour = test: In vitro MIC against pig disease strains (Example 5); format: cell-based; conditions: all 5 strains of E. coli causing scour
[5] = test system: Necrotic Enteritis strain of C. perfringens; format: cell-based, Clostridium perfringens
[6] = test system: clinical isolate of C. difficile; test: In vitro MIC and MBC against Clostridium difficile (Example 6); format: cell-based
[7] = in vivo
[8] = in vivo; cited from earlier work

## berberine hemisulfate [IRP001 sulfate]
[1]
  FCR (feed conversion ratio): 1.6 kg feed: 1 kg gain
  weight gained: 2.35 kg
[2]; 0.1 g/L in-water
  median lesion scores: no reduction in median lesion scores
[2]; 0.1 g/L in-water, vs nil-treatment
  Mortalities prior to autopsy: not significantly different
[2]; 0.2 g/kg in-feed
  median lesion scores: no reduction in median lesion scores
[2]; 0.2 g/kg in-feed, vs nil-treatment
  Mortalities prior to autopsy: not significantly different
[2]; 1.0 g/L in-water
  small intestinal lesion scores: substantial reduction in small intestinal lesion scores
[2]; 1.0 g/L in-water, relative to nil-treatment and low-dose groups
  Mortalities prior to autopsy: significant reduction in mortalities
[2]; 2.0 g/kg in-feed
  small intestinal lesion scores: substantial reduction in small intestinal lesion scores
[2]; 2.0 g/kg in-feed, relative to nil-treatment and low-dose groups
  Mortalities prior to autopsy: significant reduction in mortalities
[3]; ethanol
  solubility: slightly soluble
[3]; water
  solubility: about 30 parts water

## CC[C@@H](C(=O)[C@@H](C)[C@@H](O)[C@H](C)[C@@H]1O[C@@H]([C@@H](CC)C(=O)O)CC[C@@H]1C)[C@H]1O[C@]2(C=C[C@@H](O)[C@]3(CC[C@@](C)([C@H]4CC[C@](O)(CC)[C@H](C)O4)O3)O2)[C@H](C)C[C@@H]1C [salinomycin, Salinomycin, reference compound]
[4]; 21 days
  Intestinal health score: Ballooning (total gut): 0.10
  Intestinal health score: Contents lower intestine: 0.45
  Intestinal health score: Contents upper intestine: 0.65
  Intestinal health score: Hyperaemia lower intestine: 0.00
  Intestinal health score: Hyperaemia upper intestine: 0.15
  Intestinal health score: Tonus lower intestine: 0.50
  Intestinal health score: Tonus upper intestine: 0.50
  Intestinal health score: Total Intestine (maximum 10): 3.55
  Intestinal health score: Translucency lower intestine: 0.85
  Intestinal health score: Translucency upper intestine: 0.20^B
  Intestinal health score: Undigested particles in (rectum): 0.15^B
[4]; 28 days
  Intestinal health score: Ballooning (total gut): 0.80
  Intestinal health score: Contents lower intestine: 0.00
  Intestinal health score: Contents upper intestine: 1.00
  Intestinal health score: Hyperaemia lower intestine: 0.20
  Intestinal health score: Hyperaemia upper intestine: 0.80
  Intestinal health score: Tonus lower intestine: 0.60
  Intestinal health score: Tonus upper intestine: 0.80
  Intestinal health score: Total Intestine (maximum 10): 5.20
  Intestinal health score: Translucency lower intestine: 0.20
  Intestinal health score: Translucency upper intestine: 0.40
  Intestinal health score: Undigested particles in (rectum): 0.40
[4]; in vivo
  FCR 0-14 corrected for mortality: 1.113
  FCR 0-21 corrected for mortality: 1.238
  FCR 0-28 corrected for mortality: 1.470
  FCR 0-42 corrected for mortality: 1.546^BC
  Faecal oocyst count, Mean: 72,046 Oocyst/g
  Feed per bird over days 0-14: 497^AB g/bird
  Feed per bird over days 0-21: 1193^B g/bird
  Feed per bird over days 0-28: 2074 g/bird
  Feed per bird over days 0-42: 4298 g/bird
  Mean Coccidiosis Lesion Score (maximum 4) Caeca: 0.00
  Mean Coccidiosis Lesion Score (maximum 4) Duodenum: 1.35^ABC
  Mean Coccidiosis Lesion Score (maximum 4) Ileum: 0.00
  Mean Coccidiosis Lesion Score (maximum 4) Jejunum: 0.40^B
  Mean Coccidiosis Lesion Score Total: 1.75^B
  Mean Weight Gain over days 0-7: 116 gm
  Mean Weight Gain over days 8-14: 330^BC gm
  Mean Weight Gain over days 15-21: 517^A gm
  Mean Weight Gain over days 22-28: 645 gm
  Mean Weight Gain over days 29-42: 1384 gm
  Mean live weight at 0 days: 41 gm
  Mean live weight at 7 days: 157 gm
  Mean live weight at 14 days: 446^B gm
  Mean live weight at 21 days: 963^AB gm
  Mean live weight at 28 days: 1608^A gm
  Mean live weight at 42 days: 2991^A gm
  growth rate: statistically similar to the control group

## COc1cc2c(cc1OC)-c1cc3ccc(OC)c(OC)c3c[n+]1CC2 [palmatine]
E. coli causing scour
  MIC: 125 µg/mL

## CN[C@H](CC(C)C)C(=O)N[C@H]1C(=O)N[C@@H](CC(N)=O)C(=O)N[C@H]2C(=O)N[C@H]3C(=O)N[C@H](C(=O)N[C@H](C(=O)O)c4cc(O)cc(O)c4-c4cc3ccc4O)[C@H](O)c3ccc(c(Cl)c3)Oc3cc2cc(c3O[C@@H]2O[C@H](CO)[C@@H](O)[C@H](O)[C@H]2O[C@H]2C[C@](C)(N)[C@H](O)[C@H](C)O2)Oc2ccc(cc2Cl)[C@H]1O [Vancomycin, reference compound]
[5]
  MIC: within the expected range
[6]
  MIC: within the expected range

## COc1ccc2cc3[n+](cc2c1OC)CCc1cc2c(cc1-3)OCO2 [IRP001, berberine]
[5]; C. perfringens NE strain, Berberine sulfate (purity 98.0%) as test agent
  MIC: 125 µg/mL
[5]; C. perfringens, at 62.5 µg/ml
  inhibition of growth: partial inhibition of growth
[6]; Clostridioides difficile, C. difficile clinical isolate, Berberine sulfate as test agent, variation between replicates, read-out: MIC
  MIC: 500 to 1000 µg/mL
[6]; Clostridioides difficile, against CD (C. difficile)
  MBC: 880 to 1000 µg/mL
[6]; Clostridioides difficile, against CD (C. difficile), read-out: MIC
  MIC: 640 to 820 µg/mL
[7]
  adverse reactions / unanticipated events: no adverse reaction or unanticipated event
[8]
  carcinogenicity finding: potential carcinogenicity
